Reference: patent US6359196B1, “Germination-specific plant promoters” (priority 1999, dated 2002)

Experiments:
[1] = tested on: barley cystatin-1 gene promoter; assay: Transient expression in barley aleurone protoplasts, cys1 promoter deletion constructs fused to β-glucuronidase, normalised to luciferase; type: cell-based; details: 1 μM phytohormone, 40-hour incubation at 20° C.; β-glucuronidase activity divided by luciferase activity
Description: Barley aleurone protoplasts were prepared as described in Example 4, and separate protoplast aliquots were co-transfected with plasmid pAHC18 carrying the luciferase gene under control of the gene promoter derived from a constitutively expressed maize ubitiquitin gene (Bruce et al., 1989, Proc. Natl. Acad. Sci. USA 86:9692-9696), and one of the eight expression plasmids containing 5' deletions of the cystatin-1 gene promoter, as described above. The molar concentration of pAHC 18 was half of that of the reporter plasmid directing expression of β-glucuronidase. Incubation of the protoplasts with 1 μM gibberellic acid or 1 μM abscisic acid were performed in order to analyse possible, regulative effects of the phytohormones on […] gene expression, and identify the location of possible hormone responsive cis-acting gene elements. After a 40-hour incubation at 20° C., the protoplasts were harvested and the level of β-glucuronidase and luciferase activities determined as described by Leah et al. (1994, supra). The relative β-glucuronidase activity in individual samples was calculated by dividing the measured activity by the measured luciferace activity, thereby allowing differences in transformation efficiency to be corrected for.

[2] = tested on: barley α-glucosidase gene promoter; assay: Transient expression in barley aleurone protoplasts, constructs with the α-glucosidase gene promoter; type: cell-based; details: protoplasts incubated in the presence of gibberellic acid, 25° C., 40 hours
Text: It is possible to evaluate the expression levels directed by the barley α-glucosidase gene promoter by several methods. One such method is by transient expression assays performed with protoplasts prepared from aleurone layers of the barley cultivar Himalaya. This approach is not only used to evaluate the ability of different promoters to function in barley endosperm-derived tissues, including the aleurone tissue, but also to determine whether an expressed protein is secreted from the plant cell or whether the protein remains in the cell cytoplasm.
Protoplasts are transfected with a gene cassette of interest and incubated to allow the introduced gene to be expressed, and the corresponding protein allowed to accumulate in the cell or in the surrounding liquid medium. Following incubation at 25° C. for 40 hours in the presence or absence of gibberellic acid, the cells and the growth medium are assayed for the presence of the protein encoded by the transgene in order to determine the efficiency of the promoter which drives transgene expression.
A protocol for the preparation and transfection of barley aleurone protoplasts has been published by Skriver et al., (1991, supra). […]

Structure (SMILES) | relative expression of β-glucuronidase [1] | activity derived from heterologously expressed enzymes [2]
CC1=CC(=O)CC(C)(C)[C@@]1(O)/C=C/C(C)=C\C(=O)O [abscisic acid] | increased | –
C=C1C[C@]23C[C@@]1(O)CC[C@H]2[C@@]12C=C[C@H](O)[C@@](C)(C(=O)O1)[C@H]2[C@@H]3C(=O)O [gibberellic acid] | slight depression | enhanced levels of activity
